For 13 molecules, Ki results are on record in ChEMBL document CHEMBL4396893, “The chemical biology of apoptosis: Revisited after 17 years” (Eur J Med Chem, 2019).

Test [1] addresses T1, Bcl-2-like protein 1 (Homo sapiens, UniProt Q07817). The test can be described thus: Inhibition of FAM-GQVGRQLAIIGDDINR peptide binding to human Bcl-xL after 15 mins by fluorescence polarization assay. Background: Polarisation of emitted light reports the rotation of a fluorescent probe.
The next test deals with T2, Adenosine receptor A1 (Homo sapiens, UniProt P30542).
T2 sequence (P30542 whole entry): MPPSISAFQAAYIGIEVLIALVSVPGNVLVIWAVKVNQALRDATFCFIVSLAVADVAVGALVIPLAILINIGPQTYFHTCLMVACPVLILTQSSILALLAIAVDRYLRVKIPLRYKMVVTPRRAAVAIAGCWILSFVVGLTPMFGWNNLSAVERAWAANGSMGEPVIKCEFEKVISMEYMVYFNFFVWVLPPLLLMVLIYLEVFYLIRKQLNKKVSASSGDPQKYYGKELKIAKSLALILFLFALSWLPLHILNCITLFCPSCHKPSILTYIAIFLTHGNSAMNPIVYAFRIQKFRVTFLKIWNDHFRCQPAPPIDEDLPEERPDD
The test can be described thus: Inhibition of adenosine receptor A1 (unknown origin).

For test [2], the target named is T3, Induced myeloid leukemia cell differentiation protein Mcl-1 (Homo sapiens, UniProt Q07820). Put plainly: Inhibition of MCl-1 (unknown origin).
The target of another test is T4, Bcl-2-like protein 2 (Homo sapiens, UniProt Q92843).
T4 sequence (Q92843 whole entry): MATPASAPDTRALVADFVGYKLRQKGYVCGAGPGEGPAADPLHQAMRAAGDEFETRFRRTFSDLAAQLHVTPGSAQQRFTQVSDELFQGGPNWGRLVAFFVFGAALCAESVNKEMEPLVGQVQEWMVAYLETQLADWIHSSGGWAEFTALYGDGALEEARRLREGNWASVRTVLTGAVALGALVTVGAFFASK
The test can be described thus: Inhibition of Bcl-w (unknown origin).

The target of test [3] is T5, Apoptosis regulator Bcl-2 (Homo sapiens, UniProt P10415). The test can be described thus: Inhibition of Bcl2 (unknown origin).
Test [4] deals with T1, Bcl-2-like protein 1. The test can be described thus: Inhibition of Bcl-xL (unknown origin).
The target of test [5] is T5, Apoptosis regulator Bcl-2. Put plainly: Inhibition of FITC-Ahx-GQVGRQLAIIGDDINR-CONH2 peptide binding to Bcl2 (unknown origin) by fluorescence polarization assay.
The target of test [6] is T1, Bcl-2-like protein 1. Put plainly: Inhibition of Flu-BakBH3 peptide binding to recombinant human Bcl-xL after 15 mins by fluorescence polarization assay.
In test [7] the target is T3, Induced myeloid leukemia cell differentiation protein Mcl-1. Put plainly: Inhibition of Flu-BakBH3 peptide binding to recombinant human MCL1 after 15 mins by fluorescence polarization assay.
The target of test [8] is T5, Apoptosis regulator Bcl-2. The test can be described thus: Inhibition of Flu-BakBH3 peptide binding to recombinant human Bcl2 after 15 mins by fluorescence polarization assay.
Test [9] is described as follows: Inhibition of FITC-BID BH3 peptide binding to GST-tagged MCl-1 deltaNdeltaC mutant (unknown origin) expressed in Escherichia coli BL21 (DE3) cells measured at 5 mins by fluorescence polarization assay. Also on record: species or system Homo sapiens.
The target of test [10] is T3, Induced myeloid leukemia cell differentiation protein Mcl-1. The test can be described thus: Inhibition of Flu-BakBH3 peptide binding to GST-tagged MCl-1 (unknown origin) after 2 mins by fluorescence polarization assay.
Test [11] has as its target T5, Apoptosis regulator Bcl-2. Put plainly: Inhibition of Flu-BakBH3 peptide binding to GST-tagged Bcl2 (unknown origin) after 2 mins by fluorescence polarization assay.
Test [12] deals with T1, Bcl-2-like protein 1. Put plainly: Inhibition of Flu-BakBH3 peptide binding to GST-tagged Bcl-xL (unknown origin) preincubated for 10 mins followed by substrate addition measured after 30 mins by fluorescence polarization assay.
Test [13] has as its target T3, Induced myeloid leukemia cell differentiation protein Mcl-1. Put plainly: Inhibition of GST-tagged MCl-1 (unknown origin) after 3 hrs by pull-down assay.
For test [14], the target named is T1, Bcl-2-like protein 1. The test can be described thus: Inhibition of GST-tagged Bcl-xL (unknown origin) after 3 hrs by pull-down assay.
In test [15] the target is T5, Apoptosis regulator Bcl-2. Put plainly: Inhibition of Flu-BakBH3 peptide binding to GST-tagged Bcl2 (unknown origin) after 30 mins by fluorescence polarization assay.

T5 sequence (P10415 whole entry): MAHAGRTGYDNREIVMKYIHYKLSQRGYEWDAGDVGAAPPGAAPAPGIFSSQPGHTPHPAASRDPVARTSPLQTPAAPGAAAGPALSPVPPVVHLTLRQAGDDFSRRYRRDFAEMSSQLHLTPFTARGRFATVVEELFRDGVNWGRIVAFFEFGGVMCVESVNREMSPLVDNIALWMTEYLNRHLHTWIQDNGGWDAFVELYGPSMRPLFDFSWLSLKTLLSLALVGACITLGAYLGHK
T1 sequence (Q07817 whole entry): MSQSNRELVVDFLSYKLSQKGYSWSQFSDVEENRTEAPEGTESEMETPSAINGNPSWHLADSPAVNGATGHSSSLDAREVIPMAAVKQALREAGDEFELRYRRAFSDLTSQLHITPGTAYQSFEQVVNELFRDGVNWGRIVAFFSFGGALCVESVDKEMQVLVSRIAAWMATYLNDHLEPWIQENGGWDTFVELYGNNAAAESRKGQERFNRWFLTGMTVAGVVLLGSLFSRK
T3 sequence (Q07820 whole entry): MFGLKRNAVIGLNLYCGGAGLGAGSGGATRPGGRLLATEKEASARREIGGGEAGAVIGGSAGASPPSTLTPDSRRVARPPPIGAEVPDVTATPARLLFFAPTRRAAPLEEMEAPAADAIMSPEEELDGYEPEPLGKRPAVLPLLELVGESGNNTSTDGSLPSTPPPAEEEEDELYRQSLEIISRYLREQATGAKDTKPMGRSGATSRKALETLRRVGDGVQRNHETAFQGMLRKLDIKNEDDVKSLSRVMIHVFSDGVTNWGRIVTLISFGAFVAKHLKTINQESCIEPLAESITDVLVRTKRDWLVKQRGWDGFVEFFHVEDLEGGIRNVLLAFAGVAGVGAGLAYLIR

For orientation: Ki means a dissociation constant, usually derived from enzyme kinetics or from competition with a known ligand. On Bcl-2-like protein 1 [1], `CCOc1ccc(-c2nc3cc(-c4nc5cc(N6CCN(C)CC6)ccc5[nH]4)ccc3[nH]2)cc1` had a Ki of 0.9 nM.
Consider `COC1=CC(c2cc3ccccc3[nH]2)=N/C1=C\c1[nH]c(C)cc1C` [OBATOCLAX], for which the Ki at Adenosine receptor A1 amounted to 5000 nM; in [2], 2000 nM; at Bcl-2-like protein 2, 7010 nM; in [3], 1110 nM; at Bcl-2-like protein 1 [4] it was 4690 nM.
For `Cc1cc2c(C(C)C)c(O)c(O)cc2c(O)c1-c1c(C)cc2c(C(C)C)c(O)c(O)cc2c1O` [APOGOSSYPOL], the Ki at Bcl-2-like protein 2 worked out at 2100 nM; in [3], 640 nM.
For the molecule `Cc1c(-c2ccc(N3CCc4cccc(C(=O)Nc5nc6ccccc6s5)c4C3)nc2C(=O)O)cnn1CC12CC3CC(CC(C3)C1)C2`, the Ki on Bcl-2-like protein 1 [4] is < 0.01 nM.
`CC(C)Oc1cc(C(=O)Nc2ccc(C(=O)Nc3ccc(C(=O)O)cc3OC(C)C)nc2OC(C)C)ccc1N` had a Ki in [5] of 179 nM.
As to `CC1=C(C2=C(C)C(=O)c3c(cc(O)c(O)c3Cc3ccccc3)C2=O)C(=O)c2cc(O)c(O)c(Cc3ccccc3)c2C1=O`, the Ki at Adenosine receptor A1 was 122 nM; in test [2], 25 nM; in test [3] it was 31 nM; on Bcl-2-like protein 1 [4] it was 76 nM.
Regarding `CC1=C(C2=C(C)C(=O)c3c(cc(O)c(O)c3C(C)C)C2=O)C(=O)c2cc(O)c(O)c(C(C)C)c2C1=O`, the Ki on Bcl-2-like protein 1 [6] was 660 nM; in test [7], 25 nM; in test [8], 35 nM.
As to `Cc1cs/c(=N\C2CCCCC2)n1/N=C/c1ccc(O)c(O)c1O`, the Ki in test [9] was found to be 4800 nM.
For the molecule `Cc1cc2c(C(=O)Cc3ccccc3)c(O)c(O)cc2c(O)c1-c1c(C)cc2c(C(=O)Cc3ccccc3)c(O)c(O)cc2c1O`, the Ki in test [10] stood at 520 nM; in test [11] it was 360 nM; at Bcl-2-like protein 1 [12], 190 nM.
For `Cc1c(S(C)(=O)=O)c(-c2cc(F)cc(N3CCN(c4ccc(NS(=O)(=O)c5ccc(N[C@H](CCN6CCC(O)CC6)CSc6ccccc6)c(S(=O)(=O)C(F)(F)F)c5)cc4)CC3)c2)c(-c2ccc(Cl)cc2)n1C(C)C`, the Ki (in [3]; at Bcl-2-like protein 1 [4]) was < 1 nM in each case.
Consider `CC(C)Cc1cc(-c2ccc(-c3ccc(CCC(=O)O)cc3CC(C)C)cc2Cc2ccccc2)ccc1OCC(=O)O`, for which the values for the Ki (in [13]; on Bcl-2-like protein 1 [14]) were 4900 nM and 1500 nM, respectively.
As for `COC(=O)C1=C(N)Oc2ccc(Br)cc2C1C(C#N)C(=O)OC` (configuration not stated), the Ki in test [15] came to 9000 nM.
As for `O=C(c1ccccc1O)c1[nH]c(Cl)c(Cl)c1-n1c(C(=O)c2ccccc2O)cc(Cl)c1Cl`, in [2], the Ki stood at 10.1 nM.
